Several values for one entry are separate records, joined by “and”; a condition that tells them apart may be missing. Equal values may be shown once.
How the values were obtained:
[1] = test system: wild-type 149 moaA RNA (Moco RNA)-lacZ reporter fusion; experiment: β-galactosidase reporter assay of 149 moaA RNA fusion; format: cell-based, Escherichia coli; conditions: modC deletion strain, LB supplemented with 10 mM compound
Source text: These sequences were cloned into a translational fusion plasmid upstream of, and in-frame with β-galactosidase reporter gene. The fusion was placed under the control of a constitutively active lacUV5 promoter to eliminate the effects of upstream anaerobic- and molybdate-dependent promoter regulation that naturally restricts expression of the moaA operon. This series of plasmids was placed in a strain of E. coli wherein the moaA gene was deleted. The resulting transformants were transformed with a plasmid containing the moaABCDE operon under the control of an arabinose-inducible and glucose-repressible promoter (Guzman et al., 1995). These doubly transformed strains enabled us to determine the role of the 149 moaA RNA on reporter gene expression when Moco concentrations are either high or low.
To determine whether molybdate is critical for gene regulation by 149 moaA RNA, a modC knockout strain of E. coli was conducted to eliminate high affinity molybdate transporter function. This strain was then transformed with the moaABCDE inducible expression plasmid and the wild-type and mutant 149 moaA reporter fusion plasmids.
To measure gene expression from lacZ in the wild-type and mutant reporter strains of E. coli, the cells were grown in a 14 mL culture vial with shaking overnight at 37° C. in 3 mL of LB with supplementation as indicated. […]

17-90 RNA = experiment: In-line probing of 17-90 RNA (preQ1-II aptamer); format: binding, Streptococcus pneumoniae R6; conditions: for binding by 17-90 RNA: compound concentrations up to 1 mM; for Kd: read-out: apparent KD
68 metH RNA [2] = experiment: In-line probing of 68 metH RNA (SAH aptamer); format: binding, Dechloromonas aromatica; conditions: for modulation of the RNA structure: concentrations as high as 1 mM
Method: iii. In-Line Probing Analysis In-line probing assays were carried out essentially as previously described (Soukup and Breaker, 1999). 5′^32P-labeled RNAs were incubated at room temperature for approximately 40 h in 10 μl volumes containing 50 mM Tris-HCl (pH 8.3 at 25° C.), 20 mM MgCl2, 100 mM KCl, and included test compounds at the concentrations indicated. Spontaneous cleavage products were separated by denaturing 10% PAGE, visualized using a Phosphorlmager (Molecular Dynamics), and quantified using SAFA v1.1 software (Das et al., 2005). The amount of RNA cleaved at each nucleotide position was obtained from SAFA analysis, which automatically determines reference nucleotide positions with invariant levels of spontaneous cleavage to correct for different amounts loaded in each lane. Individual band intensities at each modulated site were summed and normalized to obtain values for the fraction of RNA that was structurally modulated, assuming that there was no modulation in the absence of ligand and maximal modulation in the presence of the highest concentration of ligand. Values for the apparent dissociation constant (KD) were determined by fitting the plot of the fraction modulated (F), versus the ligand concentration, [L], at all three indicated modulation sites to the equation F [L]/([L]+KD) using SigmaPlot 9 software (Systat Software, Inc.).

[3] = target: 110 Vc2 RNA (Vc2 aptamer, GEMM RNA); experiment: In-line probing of 110 Vc2 RNA (cyclic di-GMP aptamer); format: binding, Vibrio cholerae
Method: In-line probing assays were performed using methods similar to those described previously (Soukup 1999). Briefly, 5′^32P-labeled RNAs (˜[…] for cyclic di-GMP KD analysis, ˜5 nM for all other analyses) were incubated at 23° C. for approximately 40 hours in 20 mM MgCl2, 100 mM KCl, and 50 mM Tris (pH 8.3 at 23° C.) with the indicated compounds. RNA cleavage products were separated by denaturing 10% PAGE, visualized using a Phosphorimager (Molecular Dynamics), and analyzed using SAFA v1.1 software (Das 2005) or ImageQuant (Molecular Dynamics). SAFA software was used to normalize to correct for differences in the amounts of RNA loaded to each lane and to determine the intensity of each band.
To determine the KD of 110 Vc2 for cyclic di-GMP, in-line probing was conducted as described above with various concentrations of cyclic di-GMP. Due to the use of an exceptionally low concentration of radiolabeled 110 Vc2 RNA, the samples loaded were supplemented with additional unlabeled RNA that had been separately subjected to in-line probing. […] Dissociation constants (KD) were determined using ImageQuant software (Molecular Dynamics) to compare individual band intensities at sites of structural modulation assuming that there was no modulation in the absence of ligand and complete modulation in the presence of the highest ligand concentration tested. […]

[4] = Kinetics of cyclic di-GMP degradation under in-line probing conditions; format: physicochemical; conditions: in-line probing buffer, pH 8.3 at 23° C., 100 mM KCl, 20 mM MgCl2
Method: A solution of 500 μM cyclic di-GMP was incubated in the presence of in-line probing buffer (50 mM Tris-HCl [pH 8.3 at 23° C.], 100 mM KCl, 20 mM MgCl2) for varying amounts of time. The reactions were initiated by the addition of cyclic di-GMP and quenched when a 10 μL aliquot was injected onto an Agilent Technologies 1200 series HPLC equipped with an Agilent Zorbax Oligo column (5 μM, 6.2 mm×80 mm). The compounds were eluted using a gradient mobile phase composed of 95% 0.1 M NaHPO4 [pH 6.0 at 23° C.] and 5% acetonitrile to 100% 1 M NaCl. The absorbance was monitored at 254 nm. A rate constant for cyclic di-GMP was established by plotting the natural logarithm of the fraction of the cyclic di-GMP remaining uncleaved versus time, wherein the negative slope of the resulting line reflects the rate constant.

[5] = target: Escherichia coli PilZ protein domain (Escherichia coli, UniProt P76010); conditions: Ryjenkov 2006; cited from earlier work
68 metH RNA [6] = experiment: Equilibrium dialysis of [3H]SAM with 68 metH RNA; format: binding, Dechloromonas aromatica
Method: (§1) The chambers were separated by a permeable membrane with a molecular weight cut-off of 5000 Daltons.
(§2) Equilibrium dialysis was performed by delivering 20 μl samples to each side of a Dispo-Equilibrium Biodialyzer (The Nest Group, Inc., Southboro, Mass., USA) wherein the separation between chambers is maintained by a dialysis membrane with a 5000 Dalton molecular weight cut-off. One chamber contained a buffer solution comprised of 100 mM Tris-HCl (pH 8.3 at 24° C.), 20 mM MgCl2, 100 mM KCl, plus 100 nM [^3H]SAM.

[7] = target: 132 Sc RNA (SAM-IV riboswitch); experiment: In-line probing of 132 Sc RNA (SAM-IV); format: binding, Streptomyces coelicolor
Source text: DNA corresponding to the aptamer in the pEZ35 plasmid (above) was amplified by PCR with primers 5′-[…]

[8] = target: SAM-I riboswitch 124 yitJ; experiment: SAM-I riboswitch binding (literature); conditions: ratio of the KD for the compound to that for SAM
SAM-II aptamer 156 metA [9] = conditions: Corbino et al., 2005; read-out: apparent KD for SAM; cited from earlier work
[10] = target: SAM-I riboswitch 124 yitJ; conditions: calculated previously (Lim et al. 2006); read-out: KD [compound] (nM) SAM-I; cited from earlier work
SAM-II aptamer 156 metA [11] = conditions: 10 µM RNA, 100 nM [3H]SAM
Method: as §1, §2

Chain of Escherichia coli PilZ protein domain (P76010 whole entry, the tested form may be a part): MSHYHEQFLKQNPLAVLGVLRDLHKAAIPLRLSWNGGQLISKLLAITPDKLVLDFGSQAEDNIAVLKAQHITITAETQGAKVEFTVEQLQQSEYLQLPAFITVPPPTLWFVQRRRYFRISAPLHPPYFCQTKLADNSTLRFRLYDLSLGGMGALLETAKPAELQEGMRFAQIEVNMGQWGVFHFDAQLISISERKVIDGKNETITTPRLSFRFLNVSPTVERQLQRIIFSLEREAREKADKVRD

For `[Na+].[Na+].[O]=[W](=[O])([O-])[O-]` [sodium tungstate], the “reporter gene expression of WT 149 moaA reporter fusion” value [1] was “becomes derepressed”.
In the case of `Nc1nc2c(c(=O)[nH]1)CC=N2` [7-deazaguanine], the “binding by 17-90 RNA” value (17-90 RNA) is reported as “bound with only a slightly better affinity”.
In the case of `Nc1ncnc2c1ncn2[C@@H]1O[C@H](CSC[C@H](N)C(=O)O)[C@@H](O)[C@H]1O` [SAC, S-adenosylcysteine], the “loss of affinity relative to SAH” value (68 metH RNA [2]; in-line probing) is reported as “only a modest loss of affinity”.
With `[Na+].[Na+].[O]=[Mo](=[O])([O-])[O-]` [sodium molybdate] the “reporter gene expression of WT 149 moaA reporter fusion” value [1] was “expression is repressed”.
In the case of `Nc1ncc2[nH]cnc2n1` [2-aminopurine], the “binding by 17-90 RNA” value (17-90 RNA) is reported as “no binding is detected”.
In the case of `N#CC1C=Nc2nc(N)[nH]c(=O)c21` (stereo not drawn) [preQ0, 7-cyano-7-deazaguanine], the Kd (17-90 RNA) is reported as roughly 500 nM.
In the case of `Nc1nc2c(ncn2[C@@H]2O[C@@H]3COP(=O)(O)O[C@H]4[C@@H](O)[C@H](n5cnc6c(=O)[nH]c(N)nc65)O[C@@H]4COP(=O)(O)O[C@H]3[C@H]2O)c(=O)[nH]1` [cyclic di-GMP], the Kd ([3]; in-line probing with various cyclic di-GMP concentrations, read-out: apparent dissociation constant (KD)) is given as roughly 1 nM, the “rate constant for spontaneous cleavage” value [4] is given as 3.2e-06 min⁻¹ and the Kd [5] is given as 840 nM.
`CN(C)Cc1c[nH]c2nc(N)[nH]c(=O)c12` [dimethylaminomethyl analog, 7-(N,N″-dimethylaminomethyl)-7-deazaguanine] showed a Kd (17-90 RNA) of roughly 500 nM.
With `Nc1nc2c(ncn2[C@@H]2O[C@H](COP(=O)(O)O)[C@@H](O)[C@H]2O)c(=O)[nH]1` [pG] the “binding by the aptamer” value ([3]; concentration five orders of magnitude higher than the KD for cyclic di-GMP) was “not bound by the aptamer”.
For `C[S+](CC[C@H](N)C(=O)[O-])C[C@H]1O[C@@H](n2cnc3c(N)ncnc32)[C@H](O)[C@@H]1O` (stereo partly drawn) [SAM, S-adenosyl-L-methionine], the “apparent KD relative to apparent KD for SAH” value (68 metH RNA [2]; in-line probing, commercial SAM (contains ~10% SAH)) was “no more than 10 fold”, the “discrimination against SAM” value (68 metH RNA [6]; SAH versus SAM) was ~3 orders of magnitude and the Kd (68 metH RNA [6]; equilibrium dialysis, 25 μM 68 metH RNA) was no less than 25000 nM. The Kd ([7]; in-line probing, 132 Sc RNA, read-out: KD [compound] (nM) SAM-IV) was 150 nM and ~150 nM, the “KD [compound]/ KD [SAM] SAM-IV” value ([7]; ratio of the KD for the compound to that for SAM) was 1 and the “KD [compound]/ KD [SAM] SAM-I” value [8] was 1. The Kd (SAM-II aptamer 156 metA [9]) was roughly 1000 nM and the Kd [10] was 5 nM.
In the case of `C[S+](CC[C@H](N)C(=O)O)C[C@H]1O[C@@H](n2cnc3c(N)ncnc32)[C@H](O)[C@@H]1O` (stereo partly drawn) [[^3H]SAM, S-(5′-adenosyl)-L-methionine-(methyl-3H)], the “shift of the distribution of [3H]SAM to the RNA chamber” value (68 metH RNA [6]; 10 µM RNA, 100 nM [3H]SAM) is reported as “no shift” and the “shift of the distribution of [3H]SAM to the RNA chamber” value (SAM-II aptamer 156 metA [11]) is reported as roughly 1.5 fold.
For `N[C@@H](CCS)C(=O)O` [homocysteine], the “modulation of the RNA structure” value (68 metH RNA [2]) was “neither homocysteine nor methionine cause any modulation of the RNA structure”.
With `CSCC[C@H](N)C(=O)O` [methionine, L-methionine] the “modulation of the RNA structure” value (68 metH RNA [2]) was “neither homocysteine nor methionine cause any modulation of the RNA structure”.
With `Cn1cnc2nc(N)[nH]c(=O)c21` [7-methylguanine] the “binding by 17-90 RNA” value (17-90 RNA) was “lack of 7-methylguanine binding”.

From US20100286082A1, “RIBOSWITCHES AND METHODS AND COMPOSITIONS FOR USE OF AND WITH RIBOSWITCHES” (Yale University, priority 2007, published 2010)
